The results in this text go back to PubChem BioAssay (NCI).

The structures appear in SMILES notation.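 A five-concentration, 48-hour dose response in 96-well plates underlies each endpoint, interpolated linearly between surrounding concentrations. Definition used: TGI = concentration required for complete inhibition of growth.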

Test systems include A498 renal; CAKI-1 renal; HCC-2998 colon; HCT-15 colon; M14 melanoma; MOLT-4 leukemia; NCI-H23 lung; NCI/ADR-RES ovarian; OVCAR-3 ovarian; SR leukemia.
Holding throughout (test): NCI-60 cell line screen, 48 h

For `C=CCOc1ccccc1C1(O)c2ccccc2C2=NCCCN21` (stereo not given), the TGI in the assay on A498 renal is greater than 100 µM; in the assay on CAKI-1 renal, greater than 100 µM; in the assay with HCC-2998 colon it was 30.3 µM; with HCT-15 colon, greater than 100 µM; with M14 melanoma it was 39.8 µM; in the assay on MOLT-4 leukemia, greater than 100 µM. Moreover, the TGI in the assay with NCI-H23 lung is greater than 100 µM; in the assay with NCI/ADR-RES ovarian, greater than 100 µM; in the assay with OVCAR-3 ovarian, 59.7 µM; in the assay on SR leukemia, greater than 100 µM.
As to `Cc1c(N2C(=O)/C(=C/c3ccc(N(CCC#N)CCC#N)cc3)N=C2c2ccccc2)c(=O)n(-c2ccccc2)n1C`, the TGI in the assay with A498 renal, with CAKI-1 renal, with HCC-2998 colon, in the assay with HCT-15 colon, in the assay on M14 melanoma and with MOLT-4 leukemia was greater than 100 µM in each case. Also, the TGI in the assay on NCI-H23 lung, with NCI/ADR-RES ovarian, with OVCAR-3 ovarian and in the assay with SR leukemia was greater than 100 µM each time.
`CC1(C)CCCCCC(C)(CCCO)C1=O` (stereo not given): the TGI in the assay on A498 renal, in the assay with CAKI-1 renal, in the assay with HCC-2998 colon, with HCT-15 colon, with M14 melanoma and in the assay on MOLT-4 leukemia was greater than 100 µM throughout. Further, the TGI in the assay on NCI-H23 lung, in the assay on NCI/ADR-RES ovarian, in the assay on OVCAR-3 ovarian and in the assay on SR leukemia was greater than 100 µM in each case.
Turning to `CC1CN=C(c2cccc(-c3nc(-c4cccc(C5=NCC(C)N5)c4)nc(N(C)C)n3)c2)N1` (stereo not given), the TGI in the assay with A498 renal came to 5.99 µM; with CAKI-1 renal, 32.2 µM; in the assay with HCC-2998 colon, 2.39 µM; in the assay on HCT-15 colon, 24.7 µM; in the assay with M14 melanoma, 13 µM; with MOLT-4 leukemia it was 2.7 µM. For the same compound, the TGI in the assay with NCI-H23 lung was 7.77 µM; with NCI/ADR-RES ovarian it was 35.9 µM; in the assay with OVCAR-3 ovarian, 4.19 µM; in the assay with SR leukemia, 1.96 µM.
Turning to `CCOC(=O)c1cc(C2CCN(c3ccccc3)C2=O)c(C(=O)/C=C(/C)N)[nH]1` (stereo not given), the TGI in the assay on A498 renal was greater than 100 µM; in the assay with CAKI-1 renal it was 81.6 µM; in the assay on HCC-2998 colon, greater than 100 µM; in the assay on HCT-15 colon, greater than 100 µM; with M14 melanoma it was greater than 100 µM; in the assay on MOLT-4 leukemia it was greater than 100 µM. The TGI in the assay with NCI-H23 lung, with NCI/ADR-RES ovarian, with OVCAR-3 ovarian and in the assay with SR leukemia was greater than 100 µM each time.
As for `COc1cc(NC=C2C(=O)OC(C)(C)OC2=O)c(OC)c(C)c1OC`, the TGI with A498 renal, with CAKI-1 renal, in the assay on HCC-2998 colon, in the assay with HCT-15 colon, with M14 melanoma and with MOLT-4 leukemia was greater than 100 µM each time. Moreover, the TGI in the assay on NCI-H23 lung, in the assay with NCI/ADR-RES ovarian, in the assay with OVCAR-3 ovarian and with SR leukemia was greater than 100 µM in each case.
Take `CC(C)/C(=N\[N+](C)(C)C)c1ccccc1`: the TGI with A498 renal, in the assay on CAKI-1 renal, in the assay on HCC-2998 colon, in the assay on HCT-15 colon, in the assay with M14 melanoma and in the assay on MOLT-4 leukemia was greater than 100 µM in each case. The TGI in the assay on NCI-H23 lung, in the assay with NCI/ADR-RES ovarian, in the assay with OVCAR-3 ovarian and in the assay with SR leukemia was greater than 100 µM throughout.
Regarding `CCOC(=O)CN1CC(C2=C(O)CN(CC(=O)OCC)C2=O)=CC1=O`, the TGI in the assay on A498 renal, with CAKI-1 renal, in the assay with HCC-2998 colon, with HCT-15 colon, in the assay with M14 melanoma and in the assay with MOLT-4 leukemia was greater than 100 µM in each case. In addition, the TGI with NCI-H23 lung, with NCI/ADR-RES ovarian, in the assay on OVCAR-3 ovarian and in the assay on SR leukemia was greater than 100 µM in each case.
Turning to `Cc1ccc(S(=O)(=O)N/N=C2/CC3CCC4CC2CC34)cc1` (stereo not given), the TGI with A498 renal, in the assay with CAKI-1 renal, with HCC-2998 colon, in the assay on HCT-15 colon, in the assay on M14 melanoma and in the assay with MOLT-4 leukemia was greater than 100 µM throughout. The TGI in the assay with NCI-H23 lung, in the assay with NCI/ADR-RES ovarian, in the assay on OVCAR-3 ovarian and in the assay with SR leukemia was greater than 100 µM throughout.
As to `CN(C(=O)Cc1cc(Cl)c(Cl)cc1NC(=O)CN)[C@H]1CCCC[C@@H]1N1CCCC1`, the TGI is 51.2 µM in the assay on A498 renal; greater than 100 µM in the assay with CAKI-1 renal; 31.6 µM with HCC-2998 colon; greater than 100 µM with HCT-15 colon; 33.5 µM with M14 melanoma; greater than 100 µM in the assay on MOLT-4 leukemia. Moreover, the TGI was greater than 100 µM with NCI-H23 lung, greater than 100 µM with NCI/ADR-RES ovarian, greater than 100 µM in the assay with OVCAR-3 ovarian and 77.8 µM in the assay on SR leukemia.
Take `N#C/C(N)=C(\C#N)N=CNc1ccc(N)cc1`: the TGI in the assay with A498 renal, in the assay on CAKI-1 renal, in the assay with HCC-2998 colon, in the assay on HCT-15 colon, with M14 melanoma and in the assay on MOLT-4 leukemia was greater than 100 µM each time. The TGI in the assay on NCI-H23 lung, in the assay with NCI/ADR-RES ovarian, in the assay on OVCAR-3 ovarian and in the assay with SR leukemia was greater than 100 µM in each case.
On to `NC(=Nc1cccc(Cl)c1)c1ccccc1N`, for which the TGI in the assay with A498 renal, in the assay on CAKI-1 renal, with HCC-2998 colon, in the assay on HCT-15 colon, in the assay on M14 melanoma and in the assay on MOLT-4 leukemia was greater than 100 µM each time. Also, the TGI with NCI-H23 lung, in the assay with NCI/ADR-RES ovarian, in the assay with OVCAR-3 ovarian and with SR leukemia was greater than 100 µM in each case.
On to `Cc1cccc2c(N)c3cccc(C(=O)NCC[N+]4(Cc5ccc([N+](=O)[O-])cc5)CCOCC4)c3nc12`, for which the TGI is greater than 100 µM in the assay on A498 renal; greater than 100 µM with CAKI-1 renal; 60.5 µM with HCC-2998 colon; greater than 100 µM in the assay on HCT-15 colon; greater than 100 µM in the assay with M14 melanoma; greater than 69.2 µM with MOLT-4 leukemia. Besides, the TGI was greater than 100 µM in the assay on NCI-H23 lung, greater than 100 µM in the assay with NCI/ADR-RES ovarian, greater than 100 µM with OVCAR-3 ovarian and 64.2 µM in the assay with SR leukemia.
